Key:
barnyardgrass [1] = test: Test A preemergence; assay type: in vivo, Echinochloa crus-galli; conditions: 0 to 100 scale (0 no effect, 100 complete control)
In short: (§1)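 Loam/sand soil mix; compound in non-phytotoxic solvent + surfactant. Pre: directed soil spray right after planting seed. Post: potted plants 2–10 cm, 1–2 leaf stage, sprayed with same formulation.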

foxtail, giant [2] = test: Test A preemergence; assay type: in vivo, Setaria faberii; conditions: 0 to 100 scale (0 no effect, 100 complete control)
In short: as §1

pigweed [3] = test: Test A preemergence; assay type: in vivo, Amaranthus retroflexus; conditions: 0 to 100 scale (0 no effect, 100 complete control)
In short: as §1

barnyardgrass [4] = test: Test A postemergence; assay type: in vivo, Echinochloa crus-galli; conditions: 0 to 100 scale (0 no effect, 100 complete control), approx. 10 d
In short: as §1

foxtail, giant [5] = test: Test A postemergence; assay type: in vivo, Setaria faberii; conditions: 0 to 100 scale (0 no effect, 100 complete control), approx. 10 d
In short: as §1

pigweed [6] = test: Test A postemergence; assay type: in vivo, Amaranthus retroflexus; conditions: 0 to 100 scale (0 no effect, 100 complete control), approx. 10 d
In short: as §1

wheat = test: Test A postemergence; assay type: in vivo, Triticum aestivum; conditions: 0 to 100 scale (0 no effect, 100 complete control), approx. 10 d
In short: as §1

corn [7] = test: Test A postemergence; assay type: in vivo, Zea mays; conditions: 0 to 100 scale (0 no effect, 100 complete control), approx. 10 d
In short: as §1

rice = test: Test B flooded paddy test; assay type: in vivo, Oryza sativa; conditions: 250 g ai/ha, applied to paddy water at 2-leaf stage, visual rating after 13 to 15 d, scale 0 (no effect) to 100 (complete control)
In short: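 Pots were flooded to 3 cm above the soil at treatment, and compounds were applied directly into the paddy water. That depth was held throughout. After 13 to 15 d in a greenhouse, plants were rated visually against untreated controls.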

ryegrass, Italian = test: Test C postemergence; assay type: in vivo, Lolium multiflorum
In short: (§2)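 Test chemicals in a non-phytotoxic solvent mixture with surfactant were applied to pots of plants at 2 to 18 cm (1- to 4-leaf stage) for postemergence treatment, grown in a peat-based medium with vermiculite, starter nutrients and dolomitic limestone. Preemergence treatment was to seeds freshly planted in loam soil mixed with sand.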

wheat (winter wheat) = test: Test C postemergence; assay type: in vivo, Triticum aestivum
In short: as §2

galium = test: Test C postemergence; assay type: in vivo, Galium aparine
In short: as §2

corn [8] = test: Test C postemergence; assay type: in vivo, Zea mays
In short: as §2

crabgrass, large = test: Test C postemergence; assay type: in vivo, Digitaria sanguinalis
In short: as §2

lambsquarters = test: Test C postemergence; assay type: in vivo, Chenopodium album
In short: as §2

nutsedge, yellow = test: Test C postemergence; assay type: in vivo, Cyperus esculentus
In short: as §2

pigweed [9] = test: Test C postemergence; assay type: in vivo, Amaranthus retroflexus
In short: as §2

soybean = test: Test C postemergence; assay type: in vivo, Glycine max
In short: as §2

oilseed rape = test: Test C postemergence; assay type: in vivo, Brassica napus
In short: as §2

waterhemp = test: Test C postemergence; assay type: in vivo, Amaranthus rudis
In short: as §2

velvetleaf = test: Test C postemergence; assay type: in vivo, Abutilon theophrasti
In short: as §2

SMILES: FC(F)(F)COc1nc(-c2ccccc2)nn1Cc1ccnc(C(F)(F)F)c1 [Compound 24]
- Plant response rating, Barnyardgrass (barnyardgrass [1]; 125 g ai/ha): 50
- Plant response rating, Barnyardgrass (barnyardgrass [1]; 500 g ai/ha, approx. 10 d): 90
- Plant response rating, Foxtail, Giant (foxtail, giant [2]; 125 g ai/ha): 100
- Plant response rating, Foxtail, Giant (foxtail, giant [2]; 500 g ai/ha, approx. 10 d): 100
- Plant response rating, Pigweed (pigweed [3]; 125 g ai/ha): 100
- Plant response rating, Pigweed (pigweed [3]; 500 g ai/ha, approx. 10 d): 100
- Plant response rating, Barnyardgrass (barnyardgrass [4]; 125 g ai/ha): 30
- Plant response rating, Barnyardgrass (barnyardgrass [4]; 500 g ai/ha): 70
- Plant response rating, Foxtail, Giant (foxtail, giant [5]; 125 g ai/ha): 70
- Plant response rating, Foxtail, Giant (foxtail, giant [5]; 500 g ai/ha): 90
- Plant response rating, Pigweed (pigweed [6]; 125 g ai/ha): 90
- Plant response rating, Pigweed (pigweed [6]; 500 g ai/ha): 100
- Plant response rating, Wheat (wheat; 125 g ai/ha): 20
- Plant response rating, Wheat (wheat; 500 g ai/ha): 30
- Plant response rating, Corn (corn [7]; 125 g ai/ha): 20
- Plant response rating, Corn (corn [7]; 500 g ai/ha): 40
- Plant response rating, Rice, Flood (rice): 0
- Plant response rating (scale of 0 to 100 where 0 is no effect and 100 is complete control) (ryegrass, Italian; 31 g ai/ha): 5
- Plant response rating (scale of 0 to 100 where 0 is no effect and 100 is complete control) (ryegrass, Italian; 62 g ai/ha): 5
- Plant response rating (scale of 0 to 100 where 0 is no effect and 100 is complete control) (ryegrass, Italian; 125 g ai/ha): 20
- Plant response rating (scale of 0 to 100 where 0 is no effect and 100 is complete control) (ryegrass, Italian; 250 g ai/ha): 25
- Plant response rating (scale of 0 to 100 where 0 is no effect and 100 is complete control) (wheat (winter wheat); 31 g ai/ha): 5
- Plant response rating (scale of 0 to 100 where 0 is no effect and 100 is complete control) (wheat (winter wheat); 62 g ai/ha): 5
- Plant response rating (scale of 0 to 100 where 0 is no effect and 100 is complete control) (wheat (winter wheat); 125 g ai/ha): 5
- Plant response rating (scale of 0 to 100 where 0 is no effect and 100 is complete control) (wheat (winter wheat); 250 g ai/ha): 5
- Plant response rating (scale of 0 to 100 where 0 is no effect and 100 is complete control) (galium; 31 g ai/ha): 70
- Plant response rating (scale of 0 to 100 where 0 is no effect and 100 is complete control) (galium; 62 g ai/ha): 80
- Plant response rating (scale of 0 to 100 where 0 is no effect and 100 is complete control) (galium; 125 g ai/ha): 80
- Plant response rating (scale of 0 to 100 where 0 is no effect and 100 is complete control) (galium; 250 g ai/ha): 95
- Plant response rating (scale of 0 to 100 where 0 is no effect and 100 is complete control) (corn [8]; 31 g ai/ha): 20
- Plant response rating (scale of 0 to 100 where 0 is no effect and 100 is complete control) (corn [8]; 62 g ai/ha): 20
- Plant response rating (scale of 0 to 100 where 0 is no effect and 100 is complete control) (corn [8]; 125 g ai/ha): 25
- Plant response rating (scale of 0 to 100 where 0 is no effect and 100 is complete control) (corn [8]; 250 g ai/ha): 30
- Plant response rating (scale of 0 to 100 where 0 is no effect and 100 is complete control) (crabgrass, large; 31 g ai/ha): 15
- Plant response rating (scale of 0 to 100 where 0 is no effect and 100 is complete control) (crabgrass, large; 62 g ai/ha): 10
- Plant response rating (scale of 0 to 100 where 0 is no effect and 100 is complete control) (crabgrass, large; 125 g ai/ha): 25
- Plant response rating (scale of 0 to 100 where 0 is no effect and 100 is complete control) (crabgrass, large; 250 g ai/ha): 35
- Plant response rating (scale of 0 to 100 where 0 is no effect and 100 is complete control) (lambsquarters; 31 g ai/ha): 100
- Plant response rating (scale of 0 to 100 where 0 is no effect and 100 is complete control) (lambsquarters; 62 g ai/ha): 100
- Plant response rating (scale of 0 to 100 where 0 is no effect and 100 is complete control) (lambsquarters; 125 g ai/ha): 100
- Plant response rating (scale of 0 to 100 where 0 is no effect and 100 is complete control) (lambsquarters; 250 g ai/ha): 100
- Plant response rating (scale of 0 to 100 where 0 is no effect and 100 is complete control) (nutsedge, yellow; 31 g ai/ha): 15
- Plant response rating (scale of 0 to 100 where 0 is no effect and 100 is complete control) (nutsedge, yellow; 62 g ai/ha): 25
- Plant response rating (scale of 0 to 100 where 0 is no effect and 100 is complete control) (nutsedge, yellow; 125 g ai/ha): 20
- Plant response rating (scale of 0 to 100 where 0 is no effect and 100 is complete control) (nutsedge, yellow; 250 g ai/ha): 25
- Plant response rating (scale of 0 to 100 where 0 is no effect and 100 is complete control) (pigweed [9]; 31 g ai/ha): 100
- Plant response rating (scale of 0 to 100 where 0 is no effect and 100 is complete control) (pigweed [9]; 62 g ai/ha): 100
- Plant response rating (scale of 0 to 100 where 0 is no effect and 100 is complete control) (pigweed [9]; 125 g ai/ha): 100
- Plant response rating (scale of 0 to 100 where 0 is no effect and 100 is complete control) (pigweed [9]; 250 g ai/ha): 100
- Plant response rating (scale of 0 to 100 where 0 is no effect and 100 is complete control) (soybean; 31 g ai/ha): 55
- Plant response rating (scale of 0 to 100 where 0 is no effect and 100 is complete control) (soybean; 62 g ai/ha): 40
- Plant response rating (scale of 0 to 100 where 0 is no effect and 100 is complete control) (soybean; 125 g ai/ha): 55
- Plant response rating (scale of 0 to 100 where 0 is no effect and 100 is complete control) (soybean; 250 g ai/ha): 40
- Plant response rating (scale of 0 to 100 where 0 is no effect and 100 is complete control) (oilseed rape; Oilsee Rape, 250 g ai/ha): 85
- Plant response rating (scale of 0 to 100 where 0 is no effect and 100 is complete control) (oilseed rape; Oilseed Rape, 31 g ai/ha): 50
- Plant response rating (scale of 0 to 100 where 0 is no effect and 100 is complete control) (oilseed rape; Oilseed Rape, 62 g ai/ha): 80
- Plant response rating (scale of 0 to 100 where 0 is no effect and 100 is complete control) (oilseed rape; Oilseed Rape, 125 g ai/ha): 85
- Plant response rating (scale of 0 to 100 where 0 is no effect and 100 is complete control) (waterhemp; 31 g ai/ha): 100
- Plant response rating (scale of 0 to 100 where 0 is no effect and 100 is complete control) (waterhemp; 62 g ai/ha): 98
- Plant response rating (scale of 0 to 100 where 0 is no effect and 100 is complete control) (waterhemp; 125 g ai/ha): 98
- Plant response rating (scale of 0 to 100 where 0 is no effect and 100 is complete control) (waterhemp; 250 g ai/ha): 98
- Plant response rating (scale of 0 to 100 where 0 is no effect and 100 is complete control) (velvetleaf; 31 g ai/ha): 60
- Plant response rating (scale of 0 to 100 where 0 is no effect and 100 is complete control) (velvetleaf; 62 g ai/ha): 55
- Plant response rating (scale of 0 to 100 where 0 is no effect and 100 is complete control) (velvetleaf; 125 g ai/ha): 60
- Plant response rating (scale of 0 to 100 where 0 is no effect and 100 is complete control) (velvetleaf; 250 g ai/ha): 60

Source: patent publication US10681909B2, “Herbicidal triazoles” (FMC Corporation, priority 2014, dated 2020)
